Structures can show the parent of a compound that is named as a salt. Where two headings read alike, the source gives them in different places.
What was measured:
[1] = test system: A549 cells; assay: Test for inhibition of OCR and enhancement of ECAR (XF Analyzer); assay type: cell-based; settings: 24 hrs treatment, oxygen consumption rate
From the text: Measurement of Mitochondrial Complex I Inhibition
The electron transfer complex in mitochondria is composed of 5 complexes. The complex I accept electrons from NADH produced from glycolysis and TCA cycle and the electrons move to complex […] and the electron is finally transferred to O2 and water molecule is generated. During the electron transfer, proton gradient is generated and the chemical gradient is a driving source to synthesize ATP at complex V. The mitochondrial inhibition of complex I indirectly assessed by measuring the oxygen consumption rate (OCR) at complex IV. […] The solution outside of cells becomes acidic (lower pH) as lactate is transported to outside of cells. OCR and Extracellular acidification rate (ECAR) are determined by XF Analyzer (Seahorse Biosciences).
A549 cells were purchased from American Type Tissue Culture Collection (CCL-185™) and cultured in RPMI 1640 supplied with 10% fetal bovine serum (FBS) and antibiotic-antimycotic (Lifetech, CA). A549 cells were separated with 0.5% Trypsin-EDTA and 3,000 cells were plated on 1 mg/ml poly-D-lysine (Sigma, P6407) coated XF 96 well […]. A549 cells were allowed to adhere to the wells for 24 hours under the condition of temperature, 37° C. and 5% CO2. The sensor cartridge of XF Analyzer was soaked in 200 μl of Calibrant solution (Seahorse, MA) in a clear 96-well plate at 37° C. for 24 hours. The compounds of the present invention were diluted with RPMI 1640 without FBS, transferred to A549 cells on XF 96 well plate, and incubated further for 23 hours at 37° C. and 5% CO2. After incubation, the compound solution was exchanged with pre-warmed and pH adjusted (pH7.4) XF assay media (Seahorse) supplied with 15 mM D-glucose (Sigma), 15 mM sodium pyruvate (Lifetechnologies, CA) and 4 mM L-glutamine (Lifetechnologies, CA). The compounds of present invention were prepared in XF Assay media and added to the assay plate. The assay plate was equilibrated in XF Analyzer for 1 hour, and the reading were started by sensor cartridge. The cytotoxicity assay was followed using Cyquant (Lifetechnologies, CA) in order to calibrate the inhibition with cytotoxicity of compounds. The concentrations of the compounds were tested at 0, 0.5, 1, 5, 10 and 20 μM and IC50 value was obtained from the inhibited values. That is, from OCR inhibition values at each concentration of the compound, IC50 was calculated according to Prism's dose response curve fitting.
In Table 1, the levels of OCR IC50 are evaluated by the following.
According to the test results of the compounds, the compounds were classified into A, B and C.

[2] = test system: SK-MEL-28 cells; assay: Cytotoxicity in low glucose condition (MTT assay); assay type: cell-based; settings: 0.75 mM glucose, 72 hours treatment, read-out: SK-MEL-280.75 mM glucose cell viability (IC50 μM)
From the text: Cytotoxicity Assay in Low Glucose Condition
The inhibition of oxidative phosphorylation (OXPHOS) is not cytotoxic to cells in normal glucose condition, because it is postulated that normal cells have compensatory mechanism under energy stress conditions such as low glucose. However OXPHOS inhibitors show cytotoxic effect on cells in the glucose deprived condition (BirsoyK, 2014). The glucose deprived condition is observed in tumor microenvironment potentially due to poor angiogenesis. Therefore the OXPHOS inhibitors may show anti-cancer effect on cancer cells in low glucose condition that may depict tumor microenvironment.
The compounds of the present invention were evaluated their cytotoxicity in SK-MEL-28, melanoma with 0.75 mM glucose supplement. The cytotoxic effect is compared with the cytotoxicity caused by phenformin. The cytotoxicity in low glucose condition is correlated with inhibition of oxygen consumption in mitochondria.
SK-MEL-28 (HTB-72) is a melanoma cell line obtained from ATCC (MA) and cultured in RPMI 1640 media (Lifetechnologies, CA) with supplement of 10% FBS and antibiotic-antimycotic (Lifetechnologies, CA). RPMI 1640 (−Glucose) was used to prepare low glucose media and 0.75 mM glucose was supplied with D-(+)-glucose solution from Sigma. SK-MEL-28 cells were separated from culture plate using 0.5% trypsin-EDTA and 1,250 cells were plated in 96-well plate with low glucose media. After incubation at 37° C. for 24 hour, 5% CO2, the cells were treated with the compounds of present invention in FBS-free media for 72 hours. The cytotoxicity was measured by the MTT (AMRESCO, OH) assay. NADH-dependent cellular oxidoreductase reduces MTT to its insoluble […] with purple color. The enzyme depends on cell number or energy state of cells. 10 μl of 5 mg/ml MTT solution was added to each well of the assay plate and skip the well for blank. The plate was incubated at 37° C. and 5% CO2 for 2 hours. The MTT solution was removed from each well and 100 μl of DMSO was added. The plate was read by VICTOR X3 Multilabel Counter at the wavelength of 550 nm. In Table 2, the levels of IC50 are evaluated by the following criteria.
According to the concentration of compound for killing the half of cell populations (the levels of IC50), the compounds were classified into A, B and C, when the compounds were treated on SK-MEL-28 cells at 0.75 mM glucose.

IC50 ([1]; Homo sapiens) [µM]	IC50 [1] [µM]	Compound	IC50 ([2]; Homo sapiens, SK-MEL-28, 72 h) [µM]	IC50 [2] [µM]
2 to 4	–	N=C(NC(=N)N1CCC(F)(F)C1)Nc1ccc(C(F)(F)F)cc1 [Example 30, N—(N-(4-(trifluoromethyl)phenyl)carbamimidoyl)-3,3-difluoropyrrolidine-1-carboximidamide acetate]	6 to 15	–
2 to 4	–	N=C(NC(=N)N1CCC(F)(F)C1)Nc1ccc(I)c(Cl)c1 [Example 31, N—(N-(3-chloro-4-iodophenyl)carbamimidoyl)-3,3-difluoropyrrolidine-1-carboximidamide acetate]	6 to 15	–
2 to 4	–	N=C(NC(=N)N1CCC(F)(F)C1)Nc1ccc(OC(F)(F)F)c(Cl)c1 [Example 38, N—(N-(3-chloro-4-(trifluoromethoxy)phenyl)carbamimidoyl)-3,3-difluoropyrrolidine-1-carboximidamide acetate]	6 to 15	–
> 4	–	N=C(NCc1ccc(Cl)c(Cl)c1)NC(=N)N1CCC(F)(F)CC1 [Example 42, N—(N-(3,4-dichlorobenzyl)carbamimidoyl)-4,4-difluoropiperidine-1-carboximidamide hydrochloride]	6 to 15	–
–	2 to 4	N—(N-(4-(trifluoromethythio)phenyl)carbamimidoyl)-3,3-difluoropyrrolidine-1-carboximidamide acetate [Example 32]	–	< 6
